In the test the target is T1, human histamine H4 receptor (Homo sapiens, UniProt Q9H3N8).
T1 construct: expressed in transfected cells; host or cells: SK-N-MC cells or COS7 cells, transiently transfected; cell membranes used
As to the kind of experiment: Binding Assay on Recombinant Human Histamine H4 Receptor. On the procedure:
Binding Assay on Recombinant Human Histamine H4 Receptor
SK-N-MC cells or COS7 cells were transiently transfected with pH4R and grown in 150 cm^2 tissue culture dishes. Cells were washed with saline solution, scraped with a cell scraper and collected by centrifugation (1000 rpm, 5 min). Cell membranes were prepared by homogenization of the cell pellet in 20 mM Tris-HCl with a polytron tissue homogenizer for 10 sec at high speed. Homogenate was centrifuged at 1000 rpm for 5 min at 4° C. […] The final pellet was resuspended in 50 mM Tris-HCl. Cell membranes were incubated with ^3H-histamine (5-70 nM) in the presence or absence of excess histamine (10,000 nM). […] Membranes were harvested by rapid filtration over Whatman GF/C filters and washed 4 times with ice-cold 50 mM Tris HCl. Filters were then dried, mixed with scintillant and counted for radioactivity. SK-N-MC or COS7 cells expressing human histamine H4 receptor were used to measure the affinity of binding of other compounds and their ability to displace ^3H-ligand binding by incubating the above-described reaction in the presence of various concentrations of inhibitor or compound to be tested.

[1] abbreviates: competition binding with 3H-histamine (5 nM), membranes of SK-N-MC or COS7 cells expressing human H4 receptor, Cheng-Prusoff, KD 5 nM, average of results obtained, read-out: Ki.

Structures can show the parent of a compound that is named as a salt. Where two headings read alike, the source gives them in different places.

T1 sequence (Q9H3N8 whole entry): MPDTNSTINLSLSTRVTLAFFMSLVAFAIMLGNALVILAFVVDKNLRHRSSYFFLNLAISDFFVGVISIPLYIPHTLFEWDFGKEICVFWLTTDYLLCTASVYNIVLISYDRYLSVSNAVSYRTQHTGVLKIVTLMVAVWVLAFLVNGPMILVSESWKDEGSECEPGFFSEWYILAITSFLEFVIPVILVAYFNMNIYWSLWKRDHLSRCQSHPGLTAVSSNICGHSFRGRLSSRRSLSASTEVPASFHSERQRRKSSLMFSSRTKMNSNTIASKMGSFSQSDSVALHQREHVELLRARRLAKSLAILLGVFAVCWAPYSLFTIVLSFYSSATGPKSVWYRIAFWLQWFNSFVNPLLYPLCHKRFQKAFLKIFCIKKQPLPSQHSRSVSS

One may read the Ki as a dissociation constant, usually derived from enzyme kinetics or from competition with a known ligand. `CN(C)[C@@H]1CCN(c2nc(N)nc3c2oc2ccccc23)C1` [Example 22, (R)-4-(3-Dimethylamino-pyrrolidin-1-yl)-benzo[4,5]furo[3,2-d]pyrimidin-2-ylamine trifluoroacetic acid salt]: the inhibition constant (Ki) under setting [1] came to 12 nM. Same read-out and setting: the value for `Nc1nc(N2CCNCC2)c2oc3ccccc3c2n1` [Example 23, 4-piperazin-1-yl-benzo[4,5]furo[3,2-d]pyrimidin-2-ylamine trifluoroacetic acid salt] was 21 nM; that for `CN(C)[C@@H]1CCN(c2nc(N)nc3c2oc2ccc(Cl)cc23)C1` [Example 24, (R)-8-Chloro-4-(3-dimethylamino-pyrrolidin-1-yl)-benzo[4,5]furo[3,2-d]pyrimidin-2-ylamine trifluoroacetic acid salt] was 5.5 nM; that for `Nc1nc(N2CC[C@@H](N)C2)c2oc3ccc(Cl)cc3c2n1` [Example 25, (R)-4-(3-Amino-pyrrolidin-1-yl)-8-chloro-benzo[4,5]furo[3,2-d]pyrimidin-2-ylamine trifluoroacetic acid salt] was 2.4 nM. On the same count and under the same terms, the value for `NC[C@@H]1CCN(c2nc(N)nc3c2oc2ccc(Cl)cc23)C1` [Example 26, (S)-4-(3-Aminomethyl-pyrrolidin-1-yl)-8-chloro-benzo[4,5]furo[3,2-d]pyrimidin-2-ylamine trifluoroacetic acid salt] was 90 nM; that for `Nc1nc(N2CC3CNCC3C2)c2oc3ccc(Cl)cc3c2n1` (stereo not drawn) [Example 27, 8-Chloro-4-(hexahydro-pyrrolo[3,4-c]pyrrol-2-yl)-benzo[4,5]furo[3,2-d]pyrimidin-2-ylamine trifluoroacetic acid salt] was 110 nM.

For the molecule `Nc1nc(N2CCC[C@@H](N)C2)c2oc3ccc(Cl)cc3c2n1` [Example 28, (R)-4-(3-Amino-piperidin-1-yl)-8-chloro-benzo[4,5]furo[3,2-d]pyrimidin-2-ylamine trifluoroacetic acid salt], the Ki under setting [1] was determined as 110 nM. Take `NCC1CCN(c2nc(N)nc3c2oc2ccc(Cl)cc23)C1` (stereo not drawn) [Example 29, 4-(3-Aminomethyl-pyrrolidin-1-yl)-8-chloro-benzo[4,5]furo[3,2-d]pyrimidin-2-ylamine trifluoroacetic acid salt]: the inhibition constant Ki under setting [1] stood at 140 nM. On the same count and under the same terms, the value for `NC[C@H]1CCN(c2nc(N)nc3c2oc2ccc(Cl)cc23)C1` [Example 30, (R)-4-(3-Aminomethyl-pyrrolidin-1-yl)-8-chloro-benzo[4,5]furo[3,2-d]pyrimidin-2-ylamine trifluoroacetic acid salt] was 140 nM; that for `Nc1nc(N2CCNCC2)c2oc3c(Cl)cc(Cl)cc3c2n1` [Example 31, 6,8-Dichloro-4-piperazin-1-yl-benzo[4,5]furo[3,2-d]pyrimidin-2-ylamine trifluoroacetic acid salt] was 140 nM; that for `Nc1nc(N2CCCNCC2)c2oc3c(Cl)cc(Cl)cc3c2n1` [Example 32, 6,8-Dichloro-4-[1,4]diazepan-1-yl-benzo[4,5]furo[3,2-d]pyrimidin-2-ylamine trifluoroacetic acid salt] was 160 nM. With `Nc1nc(N2C[C@@H]3C[C@H]2CN3)c2oc3ccccc3c2n1` [Example 33, (S,S)-4-(2,5-Diaza-bicyclo[2.2.1]hept-2-yl)-benzo[4,5]furo[3,2-d]pyrimidin-2-ylamine trifluoroacetic acid salt], the Ki under setting [1] was 200 nM. `CC(C)N1CCN(c2nc(N)nc3c2oc2ccc(Cl)cc23)CC1` [Example 34, 8-Chloro-4-(4-isopropyl-piperazin-1-yl)-benzo[4,5]furo[3,2-d]pyrimidin-2-ylamine trifluoroacetic acid salt]: under setting [1], the Ki was found to be 240 nM. Still for that read-out and setting: the value for `CN(C)C1CCN(c2nc(N)nc3c2oc2c(Cl)cc(Cl)cc23)C1` (stereo not drawn) [Example 35, 6,8-Dichloro-4-(3-dimethylamino-pyrrolidin-1-yl)-benzo[4,5]furo[3,2-d]pyrimidin-2-ylamine trifluoroacetic acid salt] was 380 nM; that for `Nc1nc(N2CCN3CCCCC3C2)c2oc3ccccc3c2n1` (stereo not drawn) [Example 36, 4-(Octahydro-pyrido[1,2-a]pyrazin-2-yl)-benzo[4,5]furo[3,2-d]pyrimidin-2-ylamine trifluoroacetic acid salt] was 680 nM; that for `Nc1nc(N2CCN3CCCCC3C2)c2oc3c(Cl)cc(Cl)cc3c2n1` (stereo not drawn) [Example 37, 6,8-Dichloro-4-(octahydro-pyrido[1,2-a]pyrazin-2-yl)-benzo[4,5]furo[3,2-d]pyrimidin-2-ylamine trifluoroacetic acid salt] was 790 nM.

As for `Nc1nc(N2C[C@@H]3C[C@H]2CN3)c2oc3c(Cl)cc(Cl)cc3c2n1` [Example 38, (S,S)-6,8-Dichloro-4-(2,5-diaza-bicyclo[2.2.1]hept-2-yl)-benzo[4,5]furo[3,2-d]pyrimidin-2-ylamine trifluoroacetic acid salt], under setting [1], the Ki is greater than 10000 nM. `CN[C@@H]1CCN(c2nc(N)nc3c2oc2ccc(F)cc23)C1` [Example 39, (R)-8-Fluoro-4-(3-methylamino-pyrrolidin-1-yl)-benzo[4,5]furo[3,2-d]pyrimidin-2-ylamine trifluoroacetic acid salt]: the Ki under setting [1] turned out to be 2.3 nM. As for `Nc1nc(N2CCN3CCCC3C2)c2oc3ccc(F)cc3c2n1` (stereo not drawn) [Example 40, 8-Fluoro-4-(hexahydro-pyrrolo[1,2-a]pyrazin-2-yl)-benzo[4,5]furo[3,2-d]pyrimidin-2-ylamine trifluoroacetic acid salt], the Ki worked out at 44 nM. With `CN1CCC(N(C)c2nc(N)nc3c2oc2ccc(F)cc23)C1` (stereo not drawn) [Example 41, 8-Fluoro-N^4-methyl-N^4-(1-methyl-pyrrolidin-3-yl)-benzo[4,5]furo[3,2-d]pyrimidine-2,4-diamine trifluoroacetic acid salt], under setting [1], the Ki stood at 110 nM.

As for `CN[C@@H]1CCN(c2nc(N)nc3c2oc2ncccc23)C1` [Example 42, (R)-8-(3-Methylamino-pyrrolidin-1-yl)-9-oxa-1,5,7-triaza-fluoren-6-ylamine], the inhibition constant Ki under setting [1] was found to be 71 nM. As for `Nc1nc(N2CC3CCCNC3C2)c2oc3ncccc3c2n1` (stereo not drawn) [Example 43, 8-(Octahydro-pyrrolo[3,4-b]pyridin-6-yl)-9-oxa-1,5,7-triaza-fluoren-6-ylamine], the inhibitory constant (Ki) turned out to be 87 nM. Consider `CN1CCN(c2nc(N)nc3c2sc2ccccc23)CC1` [Example 44, 4-(4-Methyl-piperazin-1-yl)-benzo[4,5]thieno[3,2-d]pyrimidin-2-ylamine], for which, under setting [1], the Ki amounted to 29 nM. Consider `Nc1nc(N2CC3CCCNC3C2)c2sc3ccc(Br)cc3c2n1` (stereo not drawn) [Example 45, 8-Bromo-4-(octahydro-pyrrolo[3,4-b]pyridin-6-yl)-benzo[4,5]thieno[3,2-d]pyrimidin-2-ylamine hydrochloride salt], for which the inhibitory constant (Ki) is 4.8 nM. Same read-out and setting: the value for `Nc1nc(N2CC3CCCNC3C2)c2sc3cc(Br)ccc3c2n1` (stereo not drawn) [Example 46, 7-Bromo-4-(octahydro-pyrrolo[3,4-b]pyridin-6-yl)-benzo[4,5]thieno[3,2-d]pyrimidin-2-ylamine trifluoroacetic acid salt] was 28 nM. Turning to `CN[C@H]1CCN(c2nc(N)nc3c2sc2ccc(Br)cc23)C1` [Example 47, (S)-8-Bromo-4-(3-methylamino-pyrrolidin-1-yl)-benzo[4,5]thieno[3,2-d]pyrimidin-2-ylamine hydrochloride salt], the Ki under setting [1] came out at 100 nM.

Consider `CN[C@@H]1CCN(c2nc(N)nc3c2sc2ccc(Br)cc23)C1` [Example 48, (R)-8-Bromo-4-(3-methylamino-pyrrolidin-1-yl)-benzo[4,5]thieno[3,2-d]pyrimidin-2-ylamine hydrochloride salt], for which the Ki under setting [1] worked out at 2.1 nM. As for `Nc1nc(N2C[C@@H]3C[C@H]2CN3)c2sc3ccc(Br)cc3c2n1` [Example 49, (S,S)-8-Bromo-4-(2,5-diaza-bicyclo[2.2.1]hept-2-yl)-benzo[4,5]thieno[3,2-d]pyrimidin-2-ylamine hydrochloride salt], the Ki came to 350 nM. As for `CN1CCN(c2nc(N)nc3c2sc2ccc(Br)cc23)CC1` [Example 50, 8-Bromo-4-(4-methyl-piperazin-1-yl)-benzo[4,5]thieno[3,2-d]pyrimidin-2-ylamine hydrochloride salt], the inhibition constant (Ki) under setting [1] came out at 1 nM. On the same count and under the same terms, the value for `CN[C@H]1CCN(c2nc(N)nc3c2sc2cc(C(F)(F)F)ccc23)C1` [Example 51, (S)-4-(3-Methylamino-pyrrolidin-1-yl)-7-trifluoromethyl-benzo[4,5]thieno[3,2-d]pyrimidin-2-ylamine trifluoroacetic acid salt] was greater than 10000 nM.

As for `CN[C@@H]1CCN(c2nc(N)nc3c2sc2cc(C(F)(F)F)ccc23)C1` [Example 52, (R)-4-(3-Methylamino-pyrrolidin-1-yl)-7-trifluoromethyl-benzo[4,5]thieno[3,2-d]pyrimidin-2-ylamine trifluoroacetic acid salt], the inhibitory constant (Ki) under setting [1] amounted to 120 nM. Turning to `Nc1nc(N2C[C@@H]3C[C@H]2CN3)c2sc3cc(C(F)(F)F)ccc3c2n1` [Example 53, (S,S)-4-(2,5-Diaza-bicyclo[2.2.1]hept-2-yl)-7-trifluoromethyl-benzo[4,5]thieno[3,2-d]pyrimidin-2-ylamine trifluoroacetic acid salt], under setting [1], the Ki was greater than 10000 nM. The same measure, in the same setting: the value for `CN1CCN(c2nc(N)nc3c2sc2cc(C(F)(F)F)ccc23)CC1` [Example 54, 4-(4-Methyl-piperazin-1-yl)-7-trifluoromethyl-benzo[4,5]thieno[3,2-d]pyrimidin-2-ylamine trifluoroacetic acid salt] was 440 nM.

(Values after patent publication US8030321B2, “Benzofuro- and benzothienopyrimidine modulators of the histamine H4 receptor” (Janssen Pharmaceutica, NV, priority 2006, dated 2011).)
